From patent US9403842B2, “Prasugrel in non-crystalline form and pharmaceutical composition thereof” (ratiopharm GmbH, priority 2009, dated 2016)

Experiment: pH-dependent degradation
Assay type: physicochemical
Settings: pH values of <3, after just 2 hours
Method: At pH values of <3, degradation of more than 1% is observed after just 2 hours. This restricts the possible excipients used in the production of pharmaceutical formulations.

## CC(=O)Oc1cc2c(s1)CCN(C(C(=O)C1CC1)c1ccccc1F)C2 (stereo not drawn) [prasugrel, 2-acetoxy-5-(α-cyclopropylcarbonyl-2-fluorobenzyl)-4,5,6,7-tetrahydrothieno[3,2-c]pyridine]
  degradation: more than 1%
